# Test results published in patent US11759480B2, “Compositions and methods for CAR T cell therapy” (ENDOCYTE, INC., priority 2017, dated 2023).
# Like-named read-outs stand apart in the source and are kept apart here.
# Tests used:
# MDA-MB-231 tumors [1] = type: in vivo, NSG mice
# Experimental: MDA-MB-231 tumors were generated by subcutaneous implantation of cultured cells at 2×10^6 in NSG mice.
# FITC-CAR-T cells were prepared as described previously. After culturing in-vitro for 12-20 days, they were frozen and stored at −80° C. in a freezing reagent containing 50% heat-inactivated AB+ human serum, 40% T cell culture media, and 10% DMSO. Frozen CAR-T cells were quickly thawed at 37° C., washed twice with PBS, and used for animal injection.
# In general, EC17/CAR-T therapy initiated when mouse tumors reached ˜200-250 mm^3 and weekly EC17 doses at 500 nmol/kg started 2 days after the CAR-T administration. All EC17 doses were given towards the end of day (˜3-4 PM) to allow cytokine release syndrome (CRS) to develop overnight. Sodium fluorescein rescue at various doses (0.06-60 μmol/kg) was administrated after the first dose of EC17, when the animals experienced a severe CRS of grade 3-4 on a 0-5 grading scale (FIG. 31). Plasma samples at various time points (3-27 hours) post sodium fluorescein rescue were collected for multiplex cytokine analysis.
# Approximately 48 hours after CAR-T cell infusion, mice were separated into 3 groups. The first group (#1) was not dosed with EC17 and served as the CAR-T cell control, the second (#2) and the third (#3) groups were intravenously injected with a single dose of EC17 (500 nmol/kg). […] Group #2 then received a single intravenous sodium fluorescein (60 μmol/kg) while group #3 was left un-rescued. […] Three satellite animals from each group were euthanized to collect blood and organs for cytokine analysis and organ toxicity evaluation. Whole blood was obtained via cardiac puncture and collected into EDTA containing tubes. Twenty-seven hours after sodium fluorescein rescue, mice rescued with 60 μmol/kg sodium fluorescein in group #2 were recovering and sCRS scale decreased to grade 2, while mice without rescue in group #3 had worse sCRS (grade 3-4). At this time, 6 satellite mice from each group were euthanized for blood collection and organ evaluation. The remaining mice were dosed with a single dose of 500 nmol/kg EC17 every week if desired, and the EC17 dosing dates were labeled in FIG. 36 as dashed vertical lines occurring after the notation “EC17”. Tumor volume and body weight changes were monitored 2-3 times per week.
# To evaluate whether a lower level of sodium fluorescein can also rescue mice under sCRS, the same rescue study was performed except that sodium fluorescein was dosed at 0.06, 0.6, and 6 μmol/kg.
# THP-1-FRβ tumors = test: EC17/CAR-T therapy in folate receptor-β positive acute myeloid leukemia model (Example 44); type: in vivo
# Source text: THP-1-FRβ tumors were generated by intravenous implantation of cultured cells at 5×10^6 per animal in 9 NSG mice.
# Starting 11 days post tumor implantation, ˜8.3 million of GFP+4M5.3 CAR-T cells were intravenously infused into each mouse. Mice were divided into 3 groups (n=3): (1) CAR-T cell alone, (2) CAR-T cells with weekly EC17 doses at 500 nmol/kg, and (3) CAR-T cells with weekly EC17 doses at 500 nmol/kg plus sodium fluorescein rescue when needed. The first EC17 dose was given two days after CAR-T cell administration. All EC17 doses were given towards the end of day (˜3-4 PM) to allow cytokine release syndrome (CRS) to develop overnight. […] No additional sodium fluorescein rescue was given for additional EC17 dosing in Group 3. Mice were weighed and monitored for sign of health and disease development. […] Upon euthanasia, all mice were subject to gross examination for the presence of tumor masses. All visible tumor masses were excised, counted and weighed. Blood, tumor metastases (mets) and normal adjacent tissues were collected for same-day flow cytometry analysis.
# Plasma was removed from predetermined volumes of whole EDTA treated blood with a 10-minute 4° C. spin at 3000×g and the resulting cell pellets were incubated with a 10-fold volume of room temperature 1×RBC lysis solution (prepared from 10× stock; Biolegend, catalog #420301) for 5 minutes, centrifuged at 400×g for 5 min. The cell pellets were washed in a 10-fold volume of ice-cold phosphate-buffered saline (PBS, pH=7.4 and filtered with a 40 μm nylon filter then pelleted again. The leukocyte cell pellets were then resuspended in a flow cytometry staining solution (1% bovine serum albumin, […] human IgG (Equitech Bio, cat #SLH56-0001), 0.9% sodium azide in PBS, pH=7.4) supplemented with both anti-mouse FcγIII/II receptor (CD16/CD32) block (clone 2.4G2; BD Bioscience, catalog #553142 at 1:100 (v/v) dilution) and anti-human Fc Block (BD Biosciences, catalog #564220 at 1:50 (v/v) dilution). Surface marker staining was performed with the addition of the following fluorochrome conjugated monoclonal antibodies added to each sample for 20 minutes on ice in the dark: anti-human CD45-APCeF780 (clone HI30, eBioscience #47-0459-42 at 1:20 (v/v) dilution), anti-human CD3-BV650 (clone SK7, BD Bioscience, catalog #563999 at 1:20 (v/v) dilution), anti-human CD137-BV650 (clone 4B4-1, BD Bioscience #564092 at 1:20 (v/v) dilution), anti-human CD8α-PECy7 (clone RPA-T8, BD Bioscience, catalog #557746 at 1:20 (v/v) dilution), anti-human CD4-Percpe710 (clone SK3, eBioscience catalog #46-0047-42 at 1:20 (v/v) dilution), anti-human CD25-PE (clone M-A251, BD Bioscience, catalog #555432 at 1:10 (v/v) dilution), anti-human CD33-PE (clone WM53, BD Bioscience, catalog #555450 at 1:5 (v/v) dilution), anti-human CD123-AF647 (clone 9F5, BD Bioscience, catalog #563599 at 1:20 (v/v) dilution). Biotinylated anti-human folate receptor-β (clone m909) was kindly provided by the Low lab at Purdue University (Arthritis Res Ther. 2011; 13(2):R59) and detected using streptavidin-eFluor660 (eBioscience, catalog #50-4317 at 1:1000 (v/v) dilution). Folic acid binding was interpreted as a measure of functional folate receptor and was determined by incubation with an Alexa Fluor conjugated folic acid which was synthesized in house. After leukocyte staining, cells were washed with PBS and resuspended in cold PBS containing 3 μM propidium idodide. Flow cytometry data was collected on the Gallios flow cytometer (Beckman Coulter, Brea, Calif.), where a minimum of 15,000 CountBright™ bead events were collected in an attempt to collect enough leukocyte events for an accurate count of infused CAR T cells in each mouse blood sample. Determination of the concentration of CAR T cells in each blood sample was calculated according to Invitrogen's instructions. Briefly, CAR T cells were identified as human CD45+ GFP+ events and easily distinguished and counted using the Kaluza™ flow cytometry software version 1.5. […]
# MDA-MB-231 tumors [2] = test: Comparison of three rescue reagents (Example 32)
# Experimental: To evaluate whether mice with FITC-CAR-T therapy related sCRS can be rescued by using competitors which may displace EC17 from either FITC-CAR-T or FR+ tumor cells, 49 NSG mice bearing MDA-MB-231 tumors (150-250 mm3) were administered with excess FITC-CAR-T cells (8 million), 36 of them were then dosed with 500 nmol/kg EC17 48 hours post CAR-T administration, 6 of them were not dosed with EC17 and were used as “No EC17” control, and 7 of them were dosed with 260 umol/kg sodium fluorescein (no EC17 but Fluorescein) to test its toxicity. […] Each group was i.v. injected with 10 umol/kg of Leucovorin, or 10 umol/kg folic acid, or 260 umol/kg sodium fluorescein, or nothing as an un-rescued control. […] Mouse body weight changes were also monitored as the indication of toxicity. […] To evaluate whether the rescue injections affect the anti-tumor activity of FITC-CAR-T cells, these mice were dosed with 500 nmol/kg EC17 twice per week (days 9, 11, 15, 18, 22, 25, etc.) and the tumor size was monitored.
compound,measurement,setting,value
"Nc1nc2ncc(CNc3ccc(C(=O)NC(CCC(=O)NCCNC(=S)Nc4ccc(-c5c6ccc(=O)cc-6oc6cc(O)ccc56)c(C(=O)O)c4)C(=O)O)cc3)nc2c(=O)[nH]1 (stereo not drawn) [EC17, FITC-Folate]",tumor growth,"MDA-MB-231 tumors [1]; 500 nmol/kg SIW, ~10.4 million FITC-CAR-T",started to shrink and disappeared eventually
same,GFP+ leukemic cells in blood,"THP-1-FRβ tumors; 500 nmol/kg SIW for 4 weeks, day 34 post CAR-T infusion",nearly undetectable in the blood
same,CRS grade,"THP-1-FRβ tumors; morning after first EC17 dose 500 nmol/kg, ~8.3 million CAR-T",~3 grade
same,persistence of anti-leukemia activity post CAR T cell infusion,"THP-1-FRβ tumors; mouse, in vivo",47 days
same,EC17-treated mice with minimum tumor load at collection,"THP-1-FRβ tumors; weekly 500 nmol/kg, +/- one-time sodium fluorescein rescue",five out of the 6
same,CAR T cell phenotype,THP-1-FRβ tumors; weekly injections of EC17,central memory/effector memory phenotype
O=C([O-])c1ccccc1-c1c2ccc(=O)cc-2oc2cc([O-])ccc12.[Na+].[Na+] [sodium fluorescein],recovery,MDA-MB-231 tumors [1]; 0.06 μmol/kg,slowest recovery
same,recovery,MDA-MB-231 tumors [1]; 6 μmol/kg,recovered the fastest
same,time to near normal range of IFN-γ,MDA-MB-231 tumors [1]; 60 μmol/kg,27 h
same,"time to normal range of IL-2, TNF-α, IL-3, GM-CSF, IL-6",MDA-MB-231 tumors [1]; 60 μmol/kg,7 h
same,human cytokine levels in blood,"MDA-MB-231 tumors [1]; 60 μmol/kg, 7 hours and 27 hours post rescue",much lower than those in un-rescued mice
same,sCRS severity,"MDA-MB-231 tumors [1]; 0.06, 0.6, 6 μmol/kg, ~8.3 million CAR-T",dose-dependent reduction of sCRS severity
same,sCRS grade,"MDA-MB-231 tumors [1]; 7 hours after 60 μmol/kg rescue, 0-5 grading scale",low grade 3
same,sCRS grade,MDA-MB-231 tumors [1]; 27 hours after 60 μmol/kg rescue,2 grade
same,lung edema,"MDA-MB-231 tumors [1]; 27 hours after rescue, 60 μmol/kg",lung edema was improved
same,median effective dose (human cytokine levels in mouse blood),"MDA-MB-231 tumors [1]; IL-2, TNF-α, IFN-γ etc.",about 0.6 μmol/kg
same,earliest cytokine response post rescue,MDA-MB-231 tumors [1]; key cytokines,3 h
same,effect on anti-tumor activity of EC17/CAR-T therapy,MDA-MB-231 tumors [1]; one dose 6 μmol/kg,didn't affect the anti-tumor activity
same,effect on CAR-T anti-tumor activity,MDA-MB-231 tumors [1]; one dose 60 μmol/kg,did not interfere with CAR-T anti-tumor activity in vivo
same,recovery from CRS,"THP-1-FRβ tumors; 6 μmol/kg, Group 3",completely recovered
same,CAR T cell functionality after rescue,"THP-1-FRβ tumors; mouse #10, rescue after first EC17 dose",CAR T cell functionality was preserved
same,body weight loss compared to other rescue groups,MDA-MB-231 tumors [2]; 260 umol/kg,least body weight loss
same,order of sCRS severity (from worst to least),"MDA-MB-231 tumors [2]; 10 hours after rescue, Leucovorin 10, folic acid 10, sodium fluorescein 260 umol/kg",no rescue group>leucovorin rescue group>folic acid rescue group>sodium fluorescein rescue group>no EC17 group
same,mice with a tiny tumor left,MDA-MB-231 tumors [2]; day 36 post CAR T injection,2 out of 9
